± gives the expanded uncertainty stated by the source.

The conditions of series [1]: Liquid; for Normal boiling temperature: Distillation; for mass density: 298.15 K, 101.33 kPa, Vibrating tube method.
Series [2] is described as follows: refractive index (Na D-line) (dimensionless). The note with it: 298.15 K; 101.33 kPa; Liquid; Standard Abbe refractometry.

Consider `OCCO` [1,2-ethanediol], for which the Normal boiling temperature in series [1] amounted to 197.12 ± 0.41 °C. The refractive index (in general, the speed of light in vacuum divided by its phase velocity in the sample) in series [2] came out at 1.4308 ± 0.0005.

Regarding `CCO` [ethanol], in series [1], the mass density (commonly mass per unit of volume) was 785.18 ± 0.15 kg/m3 and the Normal boiling temperature is 77.90 ± 0.41 °C. In addition, in series [2], the refractive index was 1.3594 ± 0.0005.

For the compound `OCC(O)CO` [glycerol], in series [1], the mass density came to 1258.52 ± 0.19 kg/m3 and the Normal boiling temperature is 289.90 ± 0.41 °C. Further, in series [2], the refractive index is 1.4726 ± 0.0005.

Regarding `O` [water], in series [1], the Normal boiling temperature is 100.00 ± 0.41 °C. Besides, in series [2], the refractive index is recorded as 1.3325 ± 0.0005.

These data come from the NIST ThermoML archive (doi:10.1016/j.fluid.2012.12.022).
